Laboratory results reported in patent US20210053957A1, “HERBICIDAL COMPOUNDS” (SYNGENTA PARTICIPATIONS AG, priority 2018, published 2021).

Key:
Experiment in all cases: Post-emergence efficacy, glasshouse spray test
Format in all cases: in vivo
Eleusine indica (ELEIN) = settings: Eleusine indica, post-emergence, 312 h, evaluated after 13 days, read-out: Control of weed species after post-emergence application, ELEIN (100=total damage to plant; 0=no damage to plant); for pest or weed control at 500 g/ha: Application Rate 500 g/Ha
Description: (§1) Seeds of a variety of test species were sown in standard soil in pots. After cultivation for 14 days (post-emergence) under controlled conditions in a glasshouse (at 24/16° C. day/night; 14 hours light; 65% humidity), the plants were sprayed with an aqueous spray solution derived from the dissolution of the technical active ingredient formula (I) in a small amount of acetone and a special solvent and emulsifier mixture referred to as IF50 (11.12% Emulsogen EL360 TM+44.44% N-methyl pyrrolidone+44.44% Dowanol DPM glycolether), to create a 50 g/l solution which was then diluted to required concentration using 0.25% or 1% Empicol ESC70 (Sodium lauryl ether sulphate)+1% ammonium sulphate as diluent. The test plants were then grown in a glasshouse under controlled conditions (at 24/16° C., day/night; 14 hours light; 65% humidity) and watered twice daily. After 13 days the test was evaluated (100=total damage to plant; 0=no damage to plant).
(§2) Ipomoea hederacea (IPOHE), Euphorbia heterophylla (EPHHL), Chenopodium album (CHEAL), Amaranthus palmeri (AMAPA), Lolium perenne (LOLPE), Digitaria sanguinalis (DIGSA), Eleusine indica (ELEIN), Echinochloa crus-galli (ECHCG), Setaia fabei (SETFA)

[1] = test system: Ipomoea hederacea (IPOHE); settings: Ipomoea hederacea, post-emergence, 312 h, evaluated after 13 days, read-out: Control of weed species after post-emergence application, IPOHE (100=total damage to plant; 0=no damage to plant); for pest or weed control at 500 g/ha: Application Rate 500 g/Ha
Description: as §1, §2

[2] = test system: Chenopodium album (CHEAL); settings: Chenopodium album, post-emergence, 312 h, evaluated after 13 days, read-out: Control of weed species after post-emergence application, CHEAL (100=total damage to plant; 0=no damage to plant); for pest or weed control at 500 g/ha: Application Rate 500 g/Ha
Description: as §1, §2

[3] = test system: Echinochloa crus-galli (ECHCG); settings: Echinochloa crus-galli, post-emergence, 312 h, evaluated after 13 days, read-out: Control of weed species after post-emergence application, ECHCG (100=total damage to plant; 0=no damage to plant); for pest or weed control at 500 g/ha: Application Rate 500 g/Ha
Description: as §1, §2

Setaia fabei (SETFA) = settings: Setaria faberi, post-emergence, 312 h, evaluated after 13 days, read-out: Control of weed species after post-emergence application, SETFA (100=total damage to plant; 0=no damage to plant); for pest or weed control at 500 g/ha: Application Rate 500 g/Ha
Description: as §1, §2

[4] = test system: Digitaria sanguinalis (DIGSA); settings: Digitaria sanguinalis, post-emergence, 312 h, evaluated after 13 days, read-out: Control of weed species after post-emergence application, DIGSA (100=total damage to plant; 0=no damage to plant); for pest or weed control at 500 g/ha: Application Rate 500 g/Ha
Description: as §1, §2

Lolium perenne (LOLPE) = settings: Lolium perenne, post-emergence, 312 h, evaluated after 13 days, read-out: Control of weed species after post-emergence application, LOLPE (100=total damage to plant; 0=no damage to plant); for pest or weed control at 500 g/ha: Application Rate 500 g/Ha
Description: as §1, §2

[5] = test system: Amaranthus palmeri (AMAPA); settings: Amaranthus palmeri, post-emergence, 312 h, evaluated after 13 days, read-out: Control of weed species after post-emergence application, AMAPA (100=total damage to plant; 0=no damage to plant); for pest or weed control at 500 g/ha: Application Rate 500 g/Ha
Description: as §1, §2

SMILES | pest or weed control at 500 g/ha (Eleusine indica (ELEIN)) | pest or weed control at 500 g/ha [1] | pest or weed control at 500 g/ha [2] | pest or weed control at 500 g/ha [3] | pest or weed control at 500 g/ha (Setaia fabei (SETFA)) | pest or weed control at 500 g/ha [4] | pest or weed control at 500 g/ha (Lolium perenne (LOLPE)) | pest or weed control at 500 g/ha [5] | pest or weed control at 125 g/ha (Eleusine indica (ELEIN); Application Rate 125 g/Ha) | pest or weed control at 125 g/ha ([1]; Application Rate 125 g/Ha) | pest or weed control at 125 g/ha ([2]; Application Rate 125 g/Ha) | pest or weed control at 125 g/ha ([3]; Application Rate 125 g/Ha) | pest or weed control at 125 g/ha (Setaia fabei (SETFA); Application Rate 125 g/Ha) | pest or weed control at 125 g/ha ([5]; Application Rate 125 g/Ha) | pest or weed control at 125 g/ha ([4]; Application Rate 125 g/Ha) | pest or weed control at 125 g/ha (Lolium perenne (LOLPE); Application Rate 125 g/Ha)
O=C(O)CC[n+]1ccc(-c2nc(Cl)cs2)cn1 [Compound A46] | 60% | 50% | 70% | 80% | 60% | 60% | 40% |  |  |  |  |  |  |  |  | 
COC(=O)CCC[n+]1ccc(-c2nccs2)cn1 [Compound A114] | 90% | 10% | 60% | 40% | 50% | 70% | 30% | 100% |  |  |  |  |  |  |  | 
O=C(O)CC[n+]1ccc(-c2cccs2)cn1 [Compound A41] | 0% | 10% | 60% | 0% | 0% | 0% | 0% | 0% |  |  |  |  |  |  |  | 
CCOP(=O)(CC[n+]1ccc(-c2ncco2)cn1)OCC [Compound A75] |  |  |  |  |  |  |  |  | 0% | 0% | 40% | 0% | 0% | 0% | 10% | 0%
Cn1cc(-c2cc[n+](CCS(=O)(=O)[O-])nc2)nn1 [Compound A81] | 10% | 10% | 40% | 30% | 50% | 70% | 10% | 50% |  |  |  |  |  |  |  | 
Cn1nnc(-c2cc[n+](CCC(=O)O)nc2)n1 [Compound A28] | 100% | 30% | 90% | 100% | 100% | 70% | 70% | 100% |  |  |  |  |  |  |  | 
COC(=O)C[n+]1ccc(-c2ncco2)cn1 [Compound A66] | 90% | 10% | 60% | 70% | 70% | 60% | 20% | 50% |  |  |  |  |  |  |  | 
Cc1nsc(-c2cc[n+](CCS(=O)(=O)[O-])nc2)c1C [Compound A54, 2-[4-(3,4-dimethylisothiazol-5-yl)pyridazin-1-ium-1-yl]ethanesulfonate] | 80% | 10% | 50% | 70% | 70% | 90% | 60% | 80% |  |  |  |  |  |  |  | 
O=P(O)(O)CC[n+]1ccc(-c2ncco2)cn1 [Compound A77] | 0% | 60% | 70% | 60% | 80% | 90% | 0% | 50% |  |  |  |  |  |  |  | 
O=C(O)c1ccccc1C[n+]1ccc(-c2ncco2)cn1 [Compound A91] | 40% | 20% | 60% | 20% | 20% | 40% | 10% | 40% |  |  |  |  |  |  |  | 
O=S(=O)([O-])CC[n+]1ccc(-c2ncc(Cl)s2)cn1 [Compound A44] | 50% | 60% |  | 30% | 60% | 50% | 30% | 100% |  |  |  |  |  |  |  | 
O=C(O)CC[n+]1ccc(-c2ccco2)cn1 [Compound A52] | 10% | 10% |  | 10% | 10% | 30% | 0% | 50% |  |  |  |  |  |  |  | 
O=S(=O)([O-])CC[n+]1ccc(-c2ccno2)cn1 [Compound A79] | 100% | 80% | 90% | 80% | 90% | 90% | 70% | 100% |  |  |  |  |  |  |  | 
Cc1coc(-c2cc[n+](CCC(=O)O)nc2)n1 [Compound A55] | 100% | 20% | 80% | 100% | 100% | 100% | 70% | 100% |  |  |  |  |  |  |  | 
Cn1cc(-c2cc[n+](CCC(=O)O)nc2)nn1 [Compound A80] | 10% | 10% | 10% | 0% | 40% | 60% | 0% | 40% |  |  |  |  |  |  |  | 
COC(=O)CCC[n+]1ccc(-c2ncco2)cn1 [Compound A69] | 90% | 40% | 90% | 80% | 90% | 90% | 30% | 90% |  |  |  |  |  |  |  | 
O=P(O)(O)CCC[n+]1ccc(-c2ncco2)cn1 [Compound A78] | 0% | 50% | 80% | 20% | 50% | 60% | 10% | 70% |  |  |  |  |  |  |  | 
O=S(=O)([O-])CC[n+]1ccc(-c2ccco2)cn1 [Compound A53] | 60% | 50% |  | 30% | 40% | 90% | 20% | 60% |  |  |  |  |  |  |  | 
